Data taken from patent US20240398699A1 (COSMO TECHNOLOGIES LTD., priority 2017, published 2024).
In brackets after ≈: the same amount, converted by molar mass. Like-named read-outs stand apart in the source and are kept apart here.

How the values were obtained:
[1] = test system: Methanobrevibacter smithii (DSMZ 11975); assay: MIC (Minimum Inhibiting Concentration) on bacterial strain; assay type: cell-based
[2] = test system: NFkB transcription factor; assay: NFkB reporter assay (Indigo Biosciences), antagonist mode, TNFα stimulated human kidney epithelial cells; assay type: cell-based; details: for IC50: Homo sapiens, Epithelial cell, 30 ng/mL TNFα, 24 hours, 2 independent experiments, read-out: Antagonism of NFkB activity IC50 Molar (95% CI range)
Protocol: The NFkB nuclear receptor assay system from Indigo Biosciences utilizes human kidney epithelial cells transiently transfected with an NF-kB reporter. The NFkB biologic activity measured as transcriptional activity from these reporter cells demands the same orchestration of all intracellular molecular interactions and events that can be expected to occur in vivo. Cells were treated under antagonist mode in the presence of 30 ng/mL TNFα to stimulate the NFkB inflammatory cascade. […] After 24 hours, luminescence which is proportional to NFkB transcriptional activity was quantitated. […] The p value was calculated using Prism parametric, paired t test analysis.

[3] = test system: NFκB transcriptional activity; assay: NFκB luciferase reporter cell line stimulated with PMA, TNFα or LPS; assay type: cell-based; details: for IC50: 24 hr incubation
Protocol: To establish that NFκB inhibition occurs upon rifamycin-induced PXR activation, a reporter cell line expressing full length NFκB and harboring luciferase reporter gene functionally linked to upstream NFκB genetic response elements, was stimulated with either PMA, TNFα or LPS to induce NFκB. Rifamycin or rifaximin were dose-titrated onto these stimulated cells. After 24 hr incubation, luminescence correlating to NFκB transcriptional activity was quantified.

[4] = target: T1, human PXR (Homo sapiens, UniProt O75469); assay: PXR nuclear receptor luciferase reporter assay (Indigo Biosciences), agonist mode; assay type: cell-based; details: for EC50: 3 independent experiments, read-out: Agonism of PXR transcriptional activity expressed as EC50 Molar (95% CI range)
T1 construct: host or cells: proprietary human cells engineered to express the hybrid receptor
T1 sequence (O75469 146-433 limits assumed): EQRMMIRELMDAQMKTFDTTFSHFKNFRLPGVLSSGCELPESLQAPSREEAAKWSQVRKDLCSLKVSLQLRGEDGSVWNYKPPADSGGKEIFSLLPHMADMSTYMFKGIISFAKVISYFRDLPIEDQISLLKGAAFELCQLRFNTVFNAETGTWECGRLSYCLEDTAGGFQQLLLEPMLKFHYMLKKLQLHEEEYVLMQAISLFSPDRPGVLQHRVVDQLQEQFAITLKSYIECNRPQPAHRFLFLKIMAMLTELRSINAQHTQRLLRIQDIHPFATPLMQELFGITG
From the text: This assay product from Indigo Biosciences (Pennsylvania, USA) utilizes cells that express a hybrid form of human PXR. The N-terminal sequence encoding the PXR DNA binding domain (DBD) was substituted with that of the yeast GAL4-DBD. The native PXR ligand binding domain (LBD) and other C-terminal domains remain intact and functional. Ligand interaction activates the receptor, causing it to bind to the GAL4 DNA binding sequence, which is functionally linked to a resident luciferase reporter gene. Thus, quantifying changes in luciferase activity in the treated reporter cells provides a sensitive surrogate measure of the changes in PXR activity. The principle application of this reporter assay system is in the screening of test samples to quantify any functional activity, either agonist or antagonist, that they may exert against human PXR. […] The p value was calculated using Prism parametric, paired t test analysis.

[5] = test system: IL1β-induced synthesis of IL-8 in colonic epithelial cells; assay: IL1β-induced IL-8 synthesis in colonic epithelial cells; assay type: cell-based
From the text: PMA or diacyl glycerol-activated PKC is important for T cell receptor or IgE-induced NFκB that occurs in immune cells, like T cells and mast cells, respectively. On the other hand, TNF or LPS-induced NFκB that occurs in colonic epithelial cells requires other signaling factors (TRAFs, TNFR-associated factors). Most importantly, for its relevance in IBS or IBD, NFκB biologic function was confirmed in colonic epithelial cells. […] These cell-dependent requirements for inducing inflammation imply that by acting on various target cells, rifamycin's anti-inflammatory potential is broad because dysregulated immune and epithelial cell interactions contribute to the pathogenesis of several GI disorders.

[6] = Safety and tolerability in healthy volunteers; assay type: in vivo, human
[7] = PMA stimulus, read-out: IC50, antagonism of PMA-induced NFκB activity
[8] = up to the highest concentration tested

CO[C@H]1/C=C/O[C@@]2(C)Oc3c(C)c(O)c4c(O)c(c5c(nc6cc(C)ccn65)c4c3C2=O)NC(=O)/C(C)=C\C=C\[C@H](C)[C@H](O)[C@@H](C)[C@@H](O)[C@@H](C)[C@H](OC(C)=O)[C@@H]1C [Rifaximin]
MIC ([1]; DSMZ11975, read-out: MIC): 25 µg/mL (≈ 31.8 µM) | IC50 [2]: 83000 nM | IC50 [3, 7]: 93.9 nM | inhibition of LPS-induced NFκB activity [3, 8]: did not inhibit | inhibition of TNFα-induced NFκB activity [3, 8]: did not inhibit | EC50 [4]: 1800 nM | times less potent than rifamycin SV at 0.3 μM (PXR) ([4]; rifaximin at 30 μM): 2.5 times

CO[C@H]1/C=C/O[C@@]2(C)Oc3c(C)c(O)c4c(O)c(cc(O)c4c3C2=O)NC(=O)/C(C)=C\C=C\[C@H](C)[C@H](O)[C@@H](C)[C@@H](O)[C@@H](C)[C@H](OC(C)=O)[C@@H]1C [Rifamycin SV, (2S,12Z,14E,16S,17S,18R,19R,20R,21S,22R,23S,24E)-21-(acetyloxy)-6,9,17,19-tetrahydroxy-23-methoxy-2,4,12,16,18,20,22-heptamethyl-1,11-dioxo-1,2-dihydro-2,7-(epoxypentadeca[1,11,13]trienimino)naphtho[2,1-b]furan-5-ol]
IC50 [2]: 23 nM | times more potent than rifaximin at inhibiting NFkB transcriptional activity ([2]; vs rifaximin): 4000 times | IC50 ([3]; LPS stimulus, read-out: IC50, antagonism of LPS-induced NFκB activity): 3490 nM | times higher potency than rifaximin, PMA-induced NFκB activity ([3]; PMA stimulus): 6 times | IC50 [3, 7]: 15.6 nM | IC50 ([3]; TNFα stimulus, read-out: IC50, antagonism of TNFα-induced NFκB activity): 14800 nM | IL1β-induced synthesis of IL-8 [5]: significantly inhibited | change in vital signs, BW, ECGs or laboratory parameters ([6]; after treatment, 600 mg t.i.d., 14 days): No significant change | change in liver or kidney functions ([6]; during the multiple doses treatment): No significant change | discontinuation due to AEs ([6]; tablets of Example 1, 600 mg t.i.d., 14 days): no subject discontinued the study due to AEs | severe AEs ([6]; tablets of Example 1, 600 mg t.i.d., 14 days, 18 healthy subjects): No severe AEs were reported | EC50 [4]: 6.08 nM | times more potent than rifaximin in stimulating PXR transcriptional activity ([4]; from rifaximin at 30 μM vs rifamycin SV at 0.3 μM): 250 times | times more potent than rifampicin (PXR) ([4]; vs rifampicin, positive control): 180 times | times more potent than rifaximin at stimulating PXR transcriptional activity ([4]; vs rifaximin): 200-440 times

NC[C@@H]1O[C@H](O[C@H]2[C@@H](O)[C@H](O[C@@H]3[C@@H](O)[C@H](N)C[C@H](N)[C@H]3O[C@H]3O[C@H](CN)[C@@H](O)[C@H](O)[C@H]3N)O[C@@H]2CO)[C@H](N)[C@@H](O)[C@@H]1O [Neomycin]
MIC [1]: >100 µg/mL

CO[C@H]1/C=C/O[C@@]2(C)Oc3c(C)c([O-])c4c(O)c(cc(O)c4c3C2=O)NC(=O)/C(C)=C\C=C\[C@H](C)[C@H](O)[C@@H](C)[C@@H](O)[C@@H](C)[C@H](OC(C)=O)[C@@H]1C.[Na+] [Rifamycin SV sodium]
MIC [1]: <1 µg/mL

Cc1ncc([N+](=O)[O-])n1CCO [Metronidazole]
MIC ([1]; DSMZ11975, read-out: MIC): 25 µg/mL (≈ 146 µM)
